This note sets out measurements from patent US8039501B2, “Synephrine derivatives useful as anti-inflammatory agents” (Universiteit Gent, priority 2005, dated 2011).

The test system of one experiment is NFκB. Description: EMSA of NFkB DNA binding in MCF7 cells. To be noted: pre-treated 10, 1, 0.1, 0.01, 0.001 μM for two hours, TNF 2000 IU/ml 30 min, FIG. 7A. It is filed as cell-based, human. As for the experimental part: For the EMSA, the MCF7 cells were pre-treated with varying concentrations of CpdA (10, 1, 0.1, 0.01, and 0.001 μM) and DEX (0.1 μM) for two hours and subsequently TNF-induced or non-TNF-induced during 30 min at 2000 IU/ml. After the induction period, nuclear extracts were examined in EMSA assays. Cells were washed with ice-cold PBS, scraped off, and pelleted in 15 ml of PBS by centrifugation for 5 min at 2600 rpm at 4° C. and lysed for 30 minutes at 4° C. in Totex buffer (20 mM HEPES (pH 7.9), 350 mM NaCl, 1 mM MgCl, 0.5 mM EDTA, 0.1 mM EGTA, 5 mM DTT, 20% glycerol, 1% NP-40, 0.1% PMSF, 1% aprotinin (4 mg/ml leupeptin). Supernatants from a 4000-rpm 10-min centrifugation were collected, aliquoted and stored at −20° C. until further use. Radiolabelled oligonucleotides that correspond to a consensus κB DNA-binding element of the IL-6 promoter, and of activating protein 1 (AP-1) DNA target-were used for appropriate EMSA's. These oligonucleotides of about 25 nucleotides comprise centrally the transcription factor binding motif. […] The samples were analyzed by electrophoresis on 6% native polyacrylamide gels. […] Visualization and quantitation of radioactive signals was carried out by a Phosphorlmager and scanned using a bioimaging analyzer (Personal Molecular Imager® FX Bio-Rad). […]
(In general: Mobility shift assays separate free from complexed probe on a gel.)

A further experiment concerns MM1.S cell lines. The experiment is described as follows: Annexin V/PI assay in MM1.S cells. Format: cell-based, human. To be noted: 10^-5 M, FIG. 13. Here is the method:
1. […] Procedure: • Human multiple myeloma cell lines L363, U266, MM1.S and MMR.1 are cultured in RPMI 1640 with Glutamax-I, supplemented with 10% FCS, 100 U/ml penicillin and 100 μg/ml streptomycin. Cells are counted and resuspended in fresh medium at a concentration of 1×10^6/ml. Next, 1 ml of cell suspension is transferred to 5 ml culture tubes in the presence of test compounds (DEX, CpdA, CpdA analogues: 10^−7 to 10^−4 M) or vehicle (EtOH) and incubated for 24 or 48 hours at 37° C. • Double-staining of the cells with PI and annexin V is performed according to the instructions of the Annexin V kit (BD Biosciences). • Double-stained cells are analyzed by flow cytometry. […] Graphs are represented as the ratio of early apoptotic cells versus late apoptotic cells (a) or as total % of living cells (b).

As for `CNCC(Cl)c1ccc(OC(C)=O)cc1.Cl` (centres unmarked) [CpdA, 2-(4-acetoxyphenyl)-2-chloro-N-methyl-ethylammonium chloride], the “NFkB available for DNA binding (EMSA)” value in the experiment on NFκB is reported as “significant impairment of NFkB available for DNA binding”. Further, in the experiment with MM1.S cell lines, the “Apoptosis (Annexin V/PI staining)” value is recorded as “able to mediate apoptosis in the MM1.S cell lines at 10-5 M, to a much higher extent than Dex”.
